Patent US11357777B2, “Use of sGC stimulators for the treatment of nonalcoholic steatohepatitis (NASH)” (Cyclerion Therapeutics, Inc., priority 2016, dated 2022)
Where two headings read alike, the source gives them in different places.

Key:
[1] = test system: TNFα, IL-6 and IL-10 cytokine levels; assay: LPS model of acute inflammation in mice; type: in vivo; conditions: 10 mg/kg oral gavage; LPS IV 1 h later; blood 2 h after LPS
Procedure: Acute murine models of inflammation have previously been described (see for example, Engelberts I et. al., Lymphokine Cytokine Res. 10(1-2):127-31 (1991) and Durez P et al., J Exp Med. 177:551-5 (1993)). In these models, mice or rats are administered the compound of interest followed by an injection of LPS (LPS stands for lipopolysaccharide, 100 ng IV administration) one hour later. LP S is a component of bacterial cell walls and elicits a rapid and strong systemic inflammatory response. Two hours after LPS injection, blood is collected, plasma and serum are isolated and cytokine levels are measured. The concentrations of TNFα and IL-6 in blood increase after stimulation with bacterial lipopolysaccharide (LP S). Measurement of cytokine production is carried out with either ELISA or cytokine bead assay (CBA).
The sGC stimulator Compound B was assessed in such an animal model using C57BL/6 mice. The structure of Compound B is depicted below:
The ability of Compound B to modulate cytokine release in vivo was assessed. Compound B was administered by oral gavage (formulated in methylcellulose as the carrier) at 1 and 10 mg/kg doses and the levels of the pro-inflammatory cytokines TNFα and IL-6 were measured, as well as the anti-inflammatory cytokine IL-10. Vehicle (V) and dexamethasone (dex, 5 mg/kg) were used as negative and positive controls, respectively, and 10 mice were used per group.

[2] = Distribution of sGC stimulators in tissues, rats (liver and plasma by LC-MS/MS); type: in vivo; conditions: Wistar, rat, 2 h post fifth dose, male rats, read-out: total Liver:Plasma ratio
Procedure: The purpose of this experiment was to determine compound concentrations in the plasma and tissues of animals dosed with sGC stimulators for 5 days Q.D.
In a first experiment, the sGC stimulator Compound B (described previously in Example 2) was dosed for 5 Days Q.D. to male Wister rats. Rats were divided into four study groups and dosed according to the below table:
The animals were dosed daily for five consecutive days according the table above. On each day of dosing, frozen aliquots of each dosing solution were thawed and the animals were weighed and dosed accordingly. On day 5, two hours post the fifth dose, blood was collected by orbital bleed. Blood samples were collected in EDTA tubes pre-loaded with 5 μL of 100 mM IBMX Plasma was be separated by centrifugation for 10 minutes at 4° C. and then stored at −80° C.
A Ketamine/Xylazine/pbs solution as a 5:1:4 ratio was administered I.P. at 1 ul per gram. Once the rat was fully anesthetized (as determined by checking its reflexes) and while the heart was still beating, a needle was inserted into the left ventricle. Approximately 20 mls of PBS/IBMX/heparin solution were then perfused. The right atrium was snipped, and perfusion continued for approximately 10 additional mls (30 mls total). At this point, the femoral artery was snipped and perfusion was continued until there was no longer blood (only clear fluid) collecting in the abdominal cavity. Several tissues, including liver, were isolated and weighed followed by snap freezing.
A second separate and similar experiment was carried out with Compound C. The structure of Compound C is depicted below. The preparation and characterization of this compound was described in patent application publication WO2014144100, published 18 Sep. 2014.
For this second experiment, rats were divided into four study groups and dosed according to the below table:
Samples were analyzed using liquid chromatography (LC) with tandem mass spectrometric detection (MS/MS) using positive electrospray ionization. The standard curve range was from 0.1 to 400 ng/mL. […]
In order to prepare the tissues for measurement, the naïve livers and the livers isolated after treatment were removed from the −80° C. freezer and placed on liquid nitrogen. The liver weight was recorded and then the tissue placed in a Geno grinding vial containing two 7/16″ steel beads. […] Approximately 200 mg of tissue from each sample was weighed and recorded. […] The samples were analyzed by LC-MS/MS.
Total liver and plasma concentrations were measured and liver concentrations were corrected for total liver weight. Liver: Plasma ratios were determined by dividing liver compound concentration by the plasma compound concentration. […]

## OC(CNc1nc(-c2cc(-c3ccon3)n(Cc3ccccc3F)n2)ncc1F)(C(F)(F)F)C(F)(F)F [Compound B]
[1]
  levels of IL-6: significantly reduced
  levels of IL-10: increasing
  levels of TNFα: significantly reduced
[2]; 1 mg/kg PO Q.D. 5 days
  Kp: 19
[2]; 10 mg/kg PO Q.D. 5 days
  Kp: 20
